Columns and labels:
[1] = Induction of DNA degradation in calf thymus DNA at 2 mM after 2 hrs by PCI extraction-based spectrophotometric analysis in presence of HRP and H2O2; conditions: cattle, 2000 µM
[2] = Drug metabolism in sorensen buffer assessed as formation of reactive intermediate during drug oxidation at 92 uM at pH 7.4 up to 24 mins in the presence of HRP and H2O2 by UV/vis spectrophotometry; type: physicochemical; conditions: pH 7.4, 0.4 h
[3] = Drug metabolism in sorensen buffer assessed as formation of reactive intermediate during drug oxidation at 92 uM at pH 7.4 up to 24 mins in the presence of H2O2 by UV/vis spectrophotometry; type: physicochemical; conditions: pH 7.4, 0.4 h
[4] = Drug metabolism in sorensen buffer assessed as iminodibenzyl formation at pH 7.4 in the presence of HRP and H2O2 by GC/MS analysis; type: physicochemical
[5] = test system: HRP (horseradish peroxidase); experiment: Drug metabolism in sorensen buffer assessed as apparent Km for drug oxidation measured for 20 mins by Michaelis-Menten equation analysis in presence of HRP and H2O2; type: physicochemical; conditions: horseradish peroxidase (HRP) with H2O2 in Sorensen buffer
[6] = Induction of DNA degradation in calf thymus DNA at 0.5 mM after 1 hr by agarose gel electrophoresis in presence of HRP and H2O2; conditions: cattle, 500 µM
[7] = Drug metabolism in sorensen buffer assessed as formation of reactive intermediate during drug oxidation at 92 uM at pH 7.4 up to 24 mins in the presence of HRP by UV/vis spectrophotometry; type: physicochemical; conditions: pH 7.4, 0.4 h
[8] = Drug metabolism in water assessed as formation of 3-chloroiminodibenzyl in the presence of HRP and H2O2 UV/Vis spectrophotometry; type: physicochemical; conditions: buffer
[9] = Drug metabolism in water assessed as formation of reactive intermediate during drug oxidation at 1 mM in the presence of HRP and H2O2 UV/vis spectrophotometry; type: physicochemical; conditions: buffer, 1000 µM

In the case of `CNCCCN1c2ccccc2CCc2ccccc21.Cl` [DESIPRAMINE HYDROCHLORIDE], the Activity [1] is reported as “Toxic”, the Drug metabolism [2] is reported as “Active” and the Drug metabolism [3] is reported as “Not Active”. The Drug metabolism [4] was “Active”, the Km at 20 min [5] was 4.4 mM and the Activity [6] was “Toxic”. For the same compound, the Drug metabolism [7] was “Not Active”.

In the case of `CN(C)CCCN1c2ccccc2CCc2ccc(Cl)cc21.Cl` [CLOMIPRAMINE HYDROCHLORIDE], the Activity [1] is reported as “Toxic”, the Drug metabolism [8] is reported as “Active” and the Activity [6] is reported as “Toxic”. The Drug metabolism [9] was “Active”.

— ChEMBL document CHEMBL2157959, “Reactive metabolites of desipramine and clomipramine: The kinetics of formation and reactivity with DNA” (Bioorg Med Chem, 2012)
